Consider three molecules from patent publication US20140357487A1, “PLANTS HAVING INCREASED TOLERANCE TO HERBICIDES” (BASF SE, priority 2011, published 2014).

What all share (type): biochemical
Assay [1] deals with T1, Hordeum HPPD variant L334E (Hordeum vulgare, UniProt O48604, A164G/L334E/R146V/R147D/R148G).
T1 construct: His (N); made in house; host or cells: E. coli BL21 (DE3)
The assay is described as follows: HPPD activity assay, Hordeum HPPD mutant L334E. The settings on record: normalized on Hordeum wild-type HPPD. The procedure:
(§1) HPPD produces homogentisic acid and CO2 from 4-hydroxyphenylpyruvate (4-HPP) and O2. The activity assay for HPPD is based on the analysis of homogentisic acid by reversed phase HPLC.
(§2) The assay mixture can contain 150 mM potassium phosphate buffer pH 7.0, 50 mM L-ascorbic acid, 1 μM FeSO4 and 7 μg of purified enzyme in a total volume of 1 ml.
(§3) Inhibitors are dissolved in DMSO (dimethylsulfoxide) to a concentration of 20 mM or 0.5 mM, respectively. From this stock solution serial five-fold dilutions are prepared in DMSO, which are used in the assay. The respective inhibitor solution accounts for 1% of the assay volume. […] After a preincubation of 30 min the reaction is started by adding 4-HPP to a final concentration of 0.1 mM. The reaction is allowed to proceed for 120 min at room temperature. The reaction is stopped by addition of 100 μl of 4.5 M phosphoric acid.
(§4) Activities are normalized by setting the uninhibited enzyme activity to 100%. IC50 values are calculated using non-linear regression.
(§5) The assay mixture can contain 150 mM potassium phosphate buffer pH 7.0, 50 mM L-ascorbic acid, 100 μM Catalase (Sigma-Aldrich), 1 μM FeSO4 and 0.2 units of purified HPPD enzyme in a total volume of 505 μl. 1 unit is defined as the amount of enzyme that is required to produce 1 nmol of HGA per minute at 20° C.
(§6) Inhibitors are dissolved in DMSO (dimethylsulfoxide) to a concentration of 0.5 mM. From this stock solution serial five-fold dilutions are prepared in DMSO, which are used in the assay. The respective inhibitor solution accounts for 1% of the assay volume. […] Activities are normalized by setting the uninhibited enzyme activity to 100%. IC50 values are calculated using non-linear regression.
(§7) Purified, mutant HPPD enzymes are obtained by the methods described above. Dose response and kinetic measurements are carried out using the described HPPD activity assay. Apparent michaelis constants (Km) and maximal reaction velocities (Vmax) are calculated by non-linear regression with the software GraphPad Prism 5 (GraphPad Software, La Jolla, USA) using a substrate inhibition model.
(§8) Field performance of the optimized HPPD enzyme, which is used as a herbicide tolerance trait may depend not only on its lack of sensitivity towards HPPD inhibiting herbicides but also on its activity. To assess the potential performance of a herbicide tolerance trait a tolerance index (TI) is calculated using the following formula: […]
(§9) Easy comparison and ranking of each trait is enabled by normalizing tolerance indexes on Arabidopsis or Hordeum wild-type HPPD.

The target of assay [2] is T2, Hordeum HPPD variant L320Q (Hordeum vulgare, UniProt O48604, A164G/L320Q/R146V/R147D/R148G).
T2 construct: His (N); made in house; host or cells: E. coli BL21 (DE3)
T2 sequence (O48604 whole entry R146V/R147D/R148G/A164G/L320Q): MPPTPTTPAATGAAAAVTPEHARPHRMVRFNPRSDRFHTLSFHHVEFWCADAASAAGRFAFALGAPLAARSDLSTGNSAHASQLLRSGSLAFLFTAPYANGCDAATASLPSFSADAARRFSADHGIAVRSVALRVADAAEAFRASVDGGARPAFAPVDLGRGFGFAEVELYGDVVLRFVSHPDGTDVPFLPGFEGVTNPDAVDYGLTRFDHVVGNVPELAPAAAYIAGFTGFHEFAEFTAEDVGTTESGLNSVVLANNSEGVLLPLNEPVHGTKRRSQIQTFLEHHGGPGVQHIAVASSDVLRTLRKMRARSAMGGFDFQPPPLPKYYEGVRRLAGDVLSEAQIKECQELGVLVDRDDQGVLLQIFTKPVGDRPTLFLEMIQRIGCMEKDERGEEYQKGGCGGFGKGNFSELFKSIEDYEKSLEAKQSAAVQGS
The assay is described as follows: HPPD activity assay, Hordeum HPPD mutant L320Q. To be noted: normalized on Hordeum wild-type HPPD. The procedure:
as §1, §2, §3, §4, §5, §6, §7, §8, §9

Assay [3] deals with T3, Hordeum HPPD variant L353M, P321R, V212I, L334E (Hordeum vulgare, UniProt O48604, L334E/L353M/P321R/V212I).
T3 construct: His (N); made in house; host or cells: E. coli BL21 (DE3)
T3 sequence (O48604 whole entry R146V/R147D/R148G/A164G/V212I/P321R/L334E/L353M): as the sequence (O48604 whole entry R146V/R147D/R148G/A164G/L320Q) above, with V212I, Q320L, P321R, L334E, L353M counted along it
The assay is described as follows: HPPD activity assay, Hordeum HPPD mutant L353M, P321R, V212I, L334E. To be noted: normalized on Hordeum wild-type HPPD. The procedure: as §1, §2, §3, §4, §5, §6, §7, §8, §9

Another assay concerns the target T4, Hordeum HPPD (SEQ ID: 2) (Hordeum vulgare, UniProt O48604, A164G/R146V/R147D/R148G).
T4 construct: His (N); made in house; host or cells: E. coli BL21 (DE3)
The assay is described as follows: HPPD activity assay, Hordeum wild-type HPPD. The settings on record: for tolerance index TI: not normalized. The procedure: as §1, §2, §3, §4, §5, §6
Using methods which are described in the above examples or well known in the art, purified, recombinant wildtype HPPD enzymes are characterized with respect to their kinetic properties and sensitivity towards HPPD inhibiting herbicides. Apparent michaelis constants (Km) and maximal reaction velocities (Vmax) are calculated by non-linear regression with the software GraphPad Prism 5 (GraphPad Software, La Jolla, USA) using a substrate inhibition model.
(§10) Field performance of the HPPD enzyme, which is used as a herbicide tolerance trait, may depend not only on its lack of sensitivity towards HPPD inhibiting herbicides but also on its activity. To assess the potential performance of a herbicide tolerance trait a tolerance index (TI) is calculated using the following formula: […]

For a further assay, the system named is Lolium HPPD. The assay can be described thus: HPPD activity assay, Lolium HPPD. To be noted: normalized on Arabidopsis wild-type HPPD. On the procedure:
as §1, §2
Inhibitors are dissolved in DMSO (dimethylsulfoxide) to a concentration of 20 mM or 0.5 mM, respectively. From this stock solution serial five-fold dilutions are prepared in DMSO, which are used in the assay. The respective inhibitor solution accounts for 1% of the assay volume. Thus, final inhibitor concentrations range from 200 μM to 2.5 nM or from 5 μM to 63 pM, respectively. After a preincubation of 30 min the reaction is started by adding 4-HPP to a final concentration of 0.1 mM. The reaction is allowed to proceed for 120 min at room temperature. The reaction is stopped by addition of 100 μl of 4.5 M phosphoric acid.
as §4, §5
Inhibitors are dissolved in DMSO (dimethylsulfoxide) to a concentration of 0.5 mM. From this stock solution serial five-fold dilutions are prepared in DMSO, which are used in the assay. The respective inhibitor solution accounts for 1% of the assay volume. Thus, final inhibitor concentrations range from 5 μM to 320 pM, respectively. Activities are normalized by setting the uninhibited enzyme activity to 100%. IC50 values are calculated using non-linear regression.
Using methods which are described in the above examples or well known in the art, purified, recombinant wildtype HPPD enzymes are characterized with respect to their kinetic properties and sensitivity towards HPPD inhibiting herbicides. Apparent michaelis constants (Km) and maximal reaction velocities (Vmax) are calculated by non-linear regression with the software GraphPad Prism 5 (GraphPad Software, La Jolla, USA) using a substrate inhibition model. […] Weighted means (by standard error) of Km and […] values are calculated from at least three independent experiments. […]
as §10

Assay [4] addresses T5, Hordeum HPPD variant V212L (Hordeum vulgare, UniProt O48604, A164G/R146V/R147D/R148G/V212L).
T5 construct: His (N); made in house; host or cells: E. coli BL21 (DE3)
The assay is described as follows: HPPD activity assay, Hordeum HPPD mutant V212L. The settings on record: normalized on Hordeum wild-type HPPD. The procedure:
as §1, §2, §3, §4, §5, §6, §7, §8, §9

Assay [5] deals with T6, Hordeum HPPD variant G407C (Hordeum vulgare, UniProt O48604, A164G/G407C/R146V/R147D/R148G).
T6 construct: His (N); made in house; host or cells: E. coli BL21 (DE3)
T6 sequence (O48604 whole entry R146V/R147D/R148G/A164G/G407C): as the sequence (O48604 whole entry R146V/R147D/R148G/A164G/L320Q) above, with Q320L, G407C counted along it
The assay can be described thus: HPPD activity assay, Hordeum HPPD mutant G407C. The settings on record: normalized on Hordeum wild-type HPPD. On the procedure: as §1, §2, §3, §4, §5, §6, §7, §8, §9

Assay [6] deals with T7, Hordeum HPPD variant L320H, P321A (Hordeum vulgare, UniProt O48604, L320H/P321A).
T7 construct: His (N); made in house; host or cells: E. coli BL21 (DE3)
T7 sequence (O48604 whole entry R146V/R147D/R148G/A164G/L320H/P321A): as the sequence (O48604 whole entry R146V/R147D/R148G/A164G/L320Q) above, with Q320H, P321A counted along it
The assay can be described thus: HPPD activity assay, Hordeum HPPD mutant L320H, P321A. To be noted: normalized on Hordeum wild-type HPPD. The procedure: as §1, §2, §3, §4, §5, §6, §7, §8, §9

Setting [7] is: Hordeum HPPD Wildtype, normalized on Hordeum wild-type HPPD.
Where [8] appears, read: Hordeum HPPD, normalized on Arabidopsis wild-type HPPD.

T5 sequence (O48604 whole entry R146V/R147D/R148G/A164G/V212L): as the sequence (O48604 whole entry R146V/R147D/R148G/A164G/L320Q) above, with V212L, Q320L counted along it
T4 sequence (O48604 whole entry R146V/R147D/R148G/A164G): as the sequence (O48604 whole entry R146V/R147D/R148G/A164G/L320Q) above, with Q320L counted along it
T1 sequence (O48604 whole entry R146V/R147D/R148G/A164G/L334E): as the sequence (O48604 whole entry R146V/R147D/R148G/A164G/L320Q) above, with Q320L, L334E counted along it

As to `CC1(C)c2cccnc2C(O)=C(c2ccc(Cl)nc2Cl)S1(=O)=O` [Inhibitor 2, 7-(2,6-dichloro-3-pyridyl)-5,5-dimethyl-6,6-dioxo-thiopyrano[4,3-b]pyridin-8-ol], the “Normalized tolerance index TI” value turned out to be 1.4 in assay [1]; 0.7 in assay [2]; 1.9 in assay [3]; 1 at Hordeum HPPD (SEQ ID: 2) (setting [7]); 0.5 at Hordeum HPPD (SEQ ID: 2) (setting [8]); 1.8 in the assay on Lolium HPPD. The figures for the “Normalized tolerance index TI” value in assay [4], in assay [5] and in assay [6] were 1.1, 2 and 2.5, respectively. Also, the affinity at Hordeum HPPD (SEQ ID: 2) corresponds to a Ki of 4.9 nM. In addition, on Hordeum HPPD (SEQ ID: 2) (Hordeum HPPD), the “tolerance index TI” value was found to be 2.2E−3.
For the molecule `COCCOCc1c(Cl)ccc(C2=C(O)c3ncccc3C(C)(C)S2(=O)=O)c1Cl` [Inhibitor 3, 7-[2,4-dichloro-3-(2-methoxyethoxymethyl)phenyl]-5,5-dimethyl-6,6-dioxo-thiopyrano[4,3-b]pyridin-8-ol], the “Normalized tolerance index TI” value in assay [1] is 1.5; in assay [2], 2.4; in assay [3], 2.1; at Hordeum HPPD (SEQ ID: 2) (setting [7]) it was 1; on Hordeum HPPD (SEQ ID: 2) (setting [8]) it was 0; in the assay on Lolium HPPD, 0.3. Also, the “Normalized tolerance index TI” value is listed as 0.7 in assay [4], 2.4 in assay [5] and 4.8 in assay [6].
As to `CC1=NOC(c2c(Cl)ccc(C3=C(O)c4ncccc4C(C)(C)S3(=O)=O)c2Cl)C1` (stereo not shown) [Inhibitor 1, 7-[2,4-dichloro-3-(3-methyl-4,5-dihydroisoxazol-5-yl)phenyl]-5,5-dimethyl-6,6-dioxo-thiopyrano[4,3-b]pyridin-8-ol], the “Normalized tolerance index TI” value in assay [1] is recorded as 1.5; in assay [2], 2.1; in assay [3], 2.2; on Hordeum HPPD (SEQ ID: 2) (setting [7]) it was 1; on Hordeum HPPD (SEQ ID: 2) (setting [8]), 0.7; in the assay on Lolium HPPD, 4.2. In addition, the “Normalized tolerance index TI” value was 0.8 in assay [4], 2.7 in assay [5] and 5.2 in assay [6]. On Hordeum HPPD (SEQ ID: 2), this molecule showed an inhibition constant Ki of 6.6 nM. In addition, at Hordeum HPPD (SEQ ID: 2) (Hordeum HPPD), the “tolerance index TI” value amounted to 2.9E−3.

In general, Ki refers to a measure of affinity in units of concentration, obtained from inhibition or displacement. Higher therefore signals a looser hold on the target.
